Values quoted from earlier work in patent US20100047341A1, “COMBINED PREPARATION FOR THE TREATMENT OF CARDIOVASCULAR DISEASES BASED ON CHRONOTHERAPY THEORY” (HANALL PHARMACEUTICAL CO., LTD., priority 2006, published 2010).

time to maximum level in blood (losartan itself as active form released from the liver to blood) | time to maximum plasma concentration (after the conversion of losartan in the liver) [h] | SMILES
an hour |  | CCCCc1nc(Cl)c(CO)n1Cc1ccc(-c2ccccc2-c2nn[nH]n2)cc1 [Losartan, 2-butyl-4chloro-1-[p-(o-1H-tetrazol-5-ylphenyl)benzyl]imidazole-5-methanol]
 | 3 to 4 | CCCCc1nc(Cl)c(C(=O)O)n1Cc1ccc(-c2ccccc2-c2nn[nH]n2)cc1 [losartan carboxylate]
